For 29 molecules, IC50 results are on record in patent US9586931B2 (Merck Sharp & Dohme Corp., priority 2012, dated 2017).

SMILES strings stand for the structures. pIC50: −log10 of the molar value.

The experiment has as its target T1, recombinant human GST-Syk (Homo sapiens, UniProt P43405).
T1 construct: purchased Carna Biosciences 08-176
Put plainly: Homogeneous Time-Resolved Fluorescence (HTRF) assay for the recombinant human Syk enzyme. Format: biochemical. The following applies: recombinant human GST-Syk 5 pM, ATP 25 μM, 10-dose titration 10 μM to 0.508 nM; read-out: rhSYK Activity IC50. Summed up: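 GST-hSyk fusion protein phosphorylated a peptide for 45 min at room temperature. The reaction was quenched with 2 nM Eu-anti-phosphotyrosine antibody and 70 nM SA-APC in 15 mM Tris pH 7.5, 40 mM EDTA, 0.01% Tween 20. The HTRF signal was read after 30 min.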
In general terms: TR-FRET usually uses a lanthanide donor and a delayed reading to cut background.
One may read the pIC50 as the IC50 on a negative log10 scale, so that one unit is a factor of ten. As to `Cc1cc(Nc2nccc(C(F)(F)F)n2)cc(-c2cn(CC(O)CF)nn2)c1` (racemic) [Example 5.52, 1-fluoro-3-[4-(3-methyl-5-{[4-(trifluoromethyl)pyrimidin-2-yl]amino}phenyl)-1H-1,2,3-triazol-1-yl]propan-2-ol], the pIC50 is 7.79. `Cc1cc(Nc2cc(C(F)(F)F)ccn2)nc(-c2cn(CC(O)c3ccc(C(N)=O)cc3)nn2)c1` (centres unmarked) [Example 1.10, 4-{1-hydroxy-2-[4-(4-methyl-6-{[4-(trifluoromethyl)pyridin-2-yl]amino}pyridin-2-yl)-1H-1,2,3-triazol-1-yl]ethyl}benzamide]: the pIC50 was 8.20.

With `Cc1cc(Nc2cc(C(F)(F)F)ccn2)nc(-c2cn(C[C@H](C)CO)nn2)c1` [Example 5.82, (2S)-2-methyl-3-[4-(4-methyl-6-{[4-(trifluoromethyl)pyridin-2-yl]amino}pyridin-2-yl)-1H-1,2,3-triazol-1-yl]propan-1-ol], the pIC50 was 8.10. For `Cc1cc(Nc2cc(C(C)C)ccn2)nc(-c2cn(C(C)c3ccc(C(=O)O)cc3)nn2)c1` (centres unmarked) [Example 2.13, 4-{1-[4-(4-methyl-6-{[4-(1-methylethyl)pyridin-2-yl]amino}pyridin-2-yl)-1H-1,2,3-triazol-1-yl]ethyl}benzoic acid] the value was 8.08; for `Cc1cc(Nc2nccc(C(F)(F)F)n2)cc(-c2cn(CCN)nn2)c1` [Example 5.74, N-{3-[1-(2-aminoethyl)-1H-1,2,3-triazol-4-yl]-5-methylphenyl}-4-(trifluoromethyl)pyrimidin-2-amine], 6.73. As for `Cc1cc(Nc2nccc(C(F)(F)F)n2)cc(-c2cn(CC3(O)CCOCC3)nn2)c1` [Example 4.14, 4-{[4-(3-methyl-5-{[4-(trifluoromethyl)pyrimidin-2-yl]amino}phenyl)-1H-1,2,3-triazol-1-yl]methyl}tetrahydro-2H-pyran-4-ol], the figure is 7.32; as for `Cc1cc(Nc2cc(C(F)(F)F)ccn2)nc(-c2cn(CC(O)CO)nn2)c1` (racemic) [Example 5.95, 3-[4-(4-methyl-6-{[4-(trifluoromethyl)pyridin-2-yl]amino}pyridin-2-yl)-1H-1,2,3-triazol-1-yl]propane-1,2-diol], 8.10; as for `Cc1cc(Nc2nccc(C(F)(F)F)n2)cc(-n2cc(CC(C)(C)C(=O)O)nn2)c1` [Example 15.13, 2,2-dimethyl-3-[1-(3-methyl-5-{[4-(trifluoromethyl)pyrimidin-2-yl]amino}phenyl)-1H-1,2,3-triazol-4-yl]propanoic acid], 7.06.

For `Cc1cc(Nc2nccc(C(F)(F)F)n2)cc(-n2cc([C@]3(O)CC[C@@H](O)CC3)nn2)c1` [Example 15.17, cis-1-[1-(3-methyl-5-{[4-(trifluoromethyl)pyrimidin-2-yl]amino}phenyl)-1H-1,2,3-triazol-4-yl]cyclohexane-1,4-diol], the pIC50 was 7.52.

On to `Cc1cc(Nc2cc(C(F)F)ccn2)nc(-c2cn(CC(C)(O)CO)nn2)c1` (centres unmarked) [Example 21.40, 3-(4-(6-((4-(difluoromethyl)pyridin-2-yl)amino)-4-methylpyridin-2-yl)-1H-1,2,3-triazol-1-yl)-2-methylpropane-1,2-diol], for which the pIC50 is 8.23. For `Cc1cc(Nc2nccc(C(F)(F)F)n2)cc(-c2ncnn2C[C@H](O)CO)c1` [Example 2.15, (2S)-3-[5-(3-methyl-5-{[4-(trifluoromethyl)pyrimidin-2-yl]amino}phenyl)-1H-1,2,4-triazol-1-yl]propane-1,2-diol], the pIC50 was 5.50. Regarding `COc1ccc(C2CN(C(=O)C(C)n3cc(-c4cc(C)cc(Nc5cc(C(F)(F)F)ccn5)n4)nn3)CCS2)cc1` (centres unmarked) [Example 1.45, 6-(1-{2-[2-(4-methoxyphenyl)thiomorpholin-4-yl]-1-methyl-2-oxoethyl}-1H-1,2,3-triazol-4-yl)-4-methyl-N-[4-(trifluoromethyl)pyridin-2-yl]pyridin-2-amine], the pIC50 was 6.76. For `Cc1cc(Nc2ncc(F)c(C(F)F)n2)cc(-c2cn(CC3OC(=O)NC34CC4)nn2)c1` (single isomer, unassigned) [Example 7.33, 7-{[4-(3-{[4-(difluoromethyl)-5-fluoropyrimidin-2-yl]amino}-5-methylphenyl)-1H-1,2,3-triazol-1-yl]methyl}-6-oxa-4-azaspiro[2.4]heptan-5-one] the value was 7.95; for `Cc1cc(Nc2nccc(C(F)(F)F)n2)cc(-c2cn(CC(O)C(=O)O)nn2)c1` (racemic) [Example 5.61, 2-hydroxy-3-[4-(3-methyl-5-{[4-(trifluoromethyl)pyrimidin-2-yl]amino}phenyl)-1H-1,2,3-triazol-1-yl]propanoic acid], 7.53. For `COC(=O)c1ccc(C(CO)n2cc(-c3cc(C)cc(Nc4cc(C(F)(F)F)ccn4)n3)nn2)cc1` (centres unmarked) [Example 4.16, methyl 4-{2-hydroxy-1-[4-(4-methyl-6-{[4-(trifluoromethyl)pyridin-2-yl]amino}pyridin-2-yl)-1H-1,2,3-triazol-1-yl]ethyl}benzoate] the value was 7.39; for `Cc1cc(Nc2nccc(C(F)(F)F)n2)cc(-c2cn(C[C@@]3(O)CC[C@H](C(=O)O)C(C)(C)C3)nn2)c1` (racemic) [Example 4.1, Racemic syn-4-Hydroxy-2,2-dimethyl-4-((4-(3-methyl-5-((4-(trifluoromethyl)pyrimidin-2-yl)amino)phenyl)-1H-1,2,3-triazol-1-yl)methyl)cyclohexane carboxylic acid], 7.09; for `Cc1cc(Nc2nccc(C(F)(F)F)n2)cc(-c2cn(C[C@H](O)CO)nn2)c1` [Example 5.24, (2S)-3-[4-(3-methyl-5-{[4-(trifluoromethyl)pyrimidin-2-yl]amino}phenyl)-1H-1,2,3-triazol-1-yl]propane-1,2-diol], 7.61. As for `Cc1cc(Nc2cc(C(F)(F)F)ccn2)nc(-c2cn([C@@H](C)C(=O)N3CCC[C@H]3C(N)=O)nn2)c1` [Example 1.20, 1-{(2S)-2-[4-(4-methyl-6-{[4-(trifluoromethyl)pyridin-2-yl]amino}pyridin-2-yl)-1H-1,2,3-triazol-1-yl]propanoyl}prolinamide], the pIC50 was 7.06. On to `Cc1cc(Nc2cc(C(F)(F)F)ccn2)nc(-c2cn(C(C)C(=O)NCc3cc4ccc(F)cc4[nH]c3=O)nn2)c1` (centres unmarked) [Example 1.43, N-[(7-fluoro-2-oxo-1,2-dihydroquinolin-3-yl)methyl]-2-[4-(4-methyl-6-{[4-(trifluoromethyl)pyridin-2-yl]amino}pyridin-2-yl)-1H-1,2,3-triazol-1-yl]propanamide], for which the pIC50 is 7.19. Regarding `Cc1cc(Nc2cc(C(F)(F)F)ccn2)nc(-c2cn(C/C=C/C(N)=O)nn2)c1` [Example 1.26, (2E)-4-[4-(4-methyl-6-{[4-(trifluoromethyl)pyridin-2-yl]amino}pyridin-2-yl)-1H-1,2,3-triazol-1-yl]but-2-enamide], the pIC50 is 5.96.

Take `Cc1cc(Nc2nccc(C(F)(F)F)n2)cc(-c2cn(CC(O)CO)nn2)c1` (racemic) [Example 5.76, 3-[4-(3-methyl-5-{[4-(trifluoromethyl)pyrimidin-2-yl]amino}phenyl)-1H-1,2,3-triazol-1-yl]propane-1,2-diol]: the pIC50 is 7.49. For the molecule `Cc1cc(Nc2cc(C(F)(F)F)ccn2)nc(-c2cn(C[C@H](O)C(N)=O)nn2)c1` [Example 1.13, (2S)-2-hydroxy-3-[4-(4-methyl-6-{[4-(trifluoromethyl)pyridin-2-yl]amino}pyridin-2-yl)-1H-1,2,3-triazol-1-yl]propanamide], the pIC50 is 8.47. For `Cc1cc(Nc2cc(C(F)(F)F)ccn2)nc(-c2cn(C3CCC(C(=O)O)C(C)(C)C3)nn2)c1` (single isomer, unassigned) [Example 3.9, 2,2-dimethyl-4-[4-(4-methyl-6-{[4-(trifluoromethyl)pyridin-2-yl]amino}pyridin-2-yl)-1H-1,2,3-triazol-1-yl]cyclohexanecarboxylic acid] the value was 8.52. For `COC(=O)C1CCC(n2cc(-c3cc(C)cc(Nc4cc(C(F)(F)F)ccn4)n3)nn2)CC1(C)C` (centres unmarked) [Example 9.3, methyl 2,2-dimethyl-4-[4-(4-methyl-6-{[4-(trifluoromethyl)pyridin-2-yl]amino}pyridin-2-yl)-1H-1,2,3-triazol-1-yl]cyclohexane-carboxylate] the value was 6.50.

Consider `Cc1cc(Nc2cc(C)c(F)cn2)nc(-c2cn(CC(C)(O)C(C)(C)O)nn2)c1` (centres unmarked) [Example 21.29, 1-(4-{6-[(5-fluoro-4-methylpyridin-2-yl)amino]-4-methylpyridin-2-yl}-1H-1,2,3-triazol-1-yl)-2,3-dimethylbutane-2,3-diol], for which the pIC50 was 7.07. As to `Cc1cc(Nc2nccc(C(F)(F)F)n2)cc(-n2cc(C3(O)CCC(O)CC3)nn2)c1` (stereo not drawn) [Example 15.16, trans-1-[1-(3-methyl-5-{[4-(trifluoromethyl)pyrimidin-2-yl]amino}phenyl)-1H-1,2,3-triazol-4-yl]cyclohexane-1,4-diol], the pIC50 was 6.93. For `COC(=O)C1CCC(n2cc(-c3cc(C)cc(Nc4nccc(C(F)(F)F)n4)c3)nn2)CC1` (mixture of isomers) [Example 5.99, methyl 4-[4-(3-methyl-5-{[4-(trifluoromethyl)pyrimidin-2-yl]amino}phenyl)-1H-1,2,3-triazol-1-yl]cyclohexane-carboxylate] the value was 6.37; for `Cc1cc(Nc2cc(C(F)(F)F)ccn2)nc(-c2cn(C3CN(C(=O)C(C)O)CC3O)nn2)c1` (single isomer, unassigned) [Example 13.3, 1-[2-hydroxypropanoyl]-4-[4-(4-methyl-6-{[4-(trifluoromethyl)pyridin-2-yl]amino}pyridin-2-yl)-1H-1,2,3-triazol-1-yl]pyrrolidin-3-ol], 7.98; for `Cc1cc(Nc2nccc(C(F)F)n2)cc(-c2cn(C(C)C3CNC(=O)O3)nn2)c1` (single isomer, unassigned) [Example 7.3, 5-(1-(4-(3-((4-(difluoromethyl)pyrimidin-2-yl)amino)-5-methylphenyl)-1H-1,2,3-triazol-1-yl)ethyl)oxazolidin-2-one], 8.26.
